Converted amounts (≈) assume the structure as drawn.
Assays:
[1] = target: Induced myeloid leukemia cell differentiation protein Mcl-1 (Homo sapiens, UniProt Q07820); assay: Inhibition of Mcl-1 (172-327) (unknown origin) using BIOTIN-AHXGQVGRQLAIIGDDINR-amide peptide by TR-FRET based BAK peptide displacement assay
[2] = Kinetic solubility of the compound in pH 7.4 buffer measured after 24 hrs by LC-UV analysis; assay type: physicochemical; settings: read-out: Kinetic_solubility
[3] = system: NCI-H929; assay: Cytotoxicity against human NCI-H929 cells assessed as […] by measuring caspase 3/7 activity measured after 6 hrs by luminescence assay; assay type: functional, cell-based; settings: NCI-H929, 6 h
[4] = system: NCI-H929; assay: Cytotoxicity against human NCI-H929 cells assessed as cell viability measured after 72 hrs incubation by CellTiterGlo assay; assay type: functional, cell-based; settings: NCI-H929, 72 h

Chain of Induced myeloid leukemia cell differentiation protein Mcl-1 (Q07820 whole entry): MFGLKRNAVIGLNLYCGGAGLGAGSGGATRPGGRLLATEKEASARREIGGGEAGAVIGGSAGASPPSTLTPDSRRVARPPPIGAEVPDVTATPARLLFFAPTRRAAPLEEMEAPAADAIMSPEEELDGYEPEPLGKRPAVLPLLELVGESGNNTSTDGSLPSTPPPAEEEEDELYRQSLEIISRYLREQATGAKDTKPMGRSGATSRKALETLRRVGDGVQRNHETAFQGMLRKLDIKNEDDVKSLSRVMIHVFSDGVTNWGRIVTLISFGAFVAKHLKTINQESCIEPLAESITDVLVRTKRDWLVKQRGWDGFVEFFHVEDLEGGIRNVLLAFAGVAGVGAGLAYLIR

Row | SMILES | IC50 [1] [µM] | solubility kinetic at 24 h [2] [µM] | IC50 [3] [µM] | IC50 [4] [µM]
1 | CC(C)C[C@@H]1NC(=O)C[C@H]2CC[C@H](CC2)NC(=O)COc2c(Cl)cccc2COc2ccc(cc2)CCNC(=O)[C@@H](Cc2ccccc2)NC1=O | 0.253 |  |  | 
2 | CCOc1cc(Oc2cc(C)cc(C)c2)cc2c1OCC(=O)N[C@H]1CC[C@H](CC1)CC(=O)N[C@@H](c1ccccc1)C(=O)N[C@H](Cc1ccccc1)C(=O)NCCc1ccc(cc1)NC2 | 9.1 | < 2 | 0.094 | 
3 | CCOc1cc(Oc2cc(C)c(Cl)c(C)c2)cc2c1OCC(=O)N[C@H]1CC[C@H](CC1)CC(=O)N[C@@H](CCS(C)(=O)=O)C(=O)N[C@H](Cc1ccncc1)C(=O)NCCc1ccc(cc1)OC2 | 5.3 | < 2 | > 10 | 
4 | CCOc1cccc2c1OC(C)(C)C(=O)N[C@H]1CC[C@H](CC1)CC(=O)N[C@@H](C(C)C)C(=O)N[C@H](Cc1ccccc1)C(=O)NCCc1ccc(cc1)OC2 | 0.137 |  |  | 
5 | CCOc1cccc2c1OCC(=O)N[C@H]1CC[C@H](CC1)CC(=O)N[C@@H](CC(C)C)C(=O)N[C@H](CC1CCCCC1)C(=O)N[C@H](C(=O)NC)Cc1ccc(cc1)OC2 | 0.098 |  |  | 
6 | CCOc1cc(Oc2cccc3ccccc23)cc2c1OCC(=O)N[C@H]1CC[C@H](CC1)CC(=O)N[C@@H](c1ccccc1)C(=O)N[C@H](Cc1ccccc1)C(=O)NCCc1ccc(cc1)OC2 | 12 |  |  | 0.17
7 | CCOc1cccc2c1OCC(=O)N[C@H]1CC[C@H](CC1)CC(=O)N[C@@H](C1CCCCC1)C(=O)N[C@H](CC1CCCCC1)C(=O)N[C@H](C(=O)NC)Cc1ccc(cc1)OC2 | 0.179 |  |  | 
8 | CCOc1cccc2c1OCC(=O)N[C@H]1CC[C@H](CC1)CC(=O)N(c1ccccc1)CC(=O)N(Cc1ccccc1)CC(=O)NCCc1ccc(cc1)OC2 | > 30 |  |  | 
9 | CCOc1cc(C#Cc2ccc(OC)cc2)cc2c1OCC(=O)N[C@H]1CC[C@H](CC1)CC(=O)N[C@@H](c1ccccc1)C(=O)N[C@H](Cc1ccccc1)C(=O)NCCc1ccc(cc1)OC2 | 8 |  |  | 1.4
10 | CCOc1cccc2c1OCC(=O)N[C@H]1CC[C@H](CC1)CC(=O)N[C@@H](CC1CCCCC1)C(=O)N[C@H](Cc1ccccc1)C(=O)N[C@H](C(=O)NC)Cc1ccc(cc1)OC2 | 0.101 |  |  | 
11 | CCOc1cc(C#Cc2cc(C)cc(C)c2)cc2c1OCC(=O)N[C@H]1CC[C@H](CC1)CC(=O)N[C@@H](c1ccccc1)C(=O)N[C@H](Cc1ccccc1)C(=O)NCCc1ccc(cc1)OC2 | 14 |  |  | 3.4
12 | CCOc1cc(Oc2cc(C)c(Cl)c(C)c2)cc2c1OCC(=O)N[C@H]1CC[C@H](CC1)CC(=O)N[C@@H](c1ccccc1)C(=O)N[C@H](Cc1ccccc1)C(=O)NCCc1ccc(cc1)NC2 | 5.3 | < 2 | 0.057 | 
13 | CCOc1cccc2c1OC(C)(C)C(=O)N[C@H]1CC[C@H](CC1)CC(=O)N[C@@H](c1ccccc1)C(=O)N[C@H](CC1CCCCC1)C(=O)NCCc1ccc(cc1)OC2 | 0.124 |  |  | 
14 | CCOc1cccc2c1OCC(=O)N[C@H]1CC[C@H](CC1)CC(=O)N[C@@H](C(C)C)C(=O)N[C@H](Cc1ccccc1)C(=O)N[C@H](C(=O)NC)Cc1ccc(cc1)OC2 | 0.298 |  |  | 
15 | CCOc1cc(C#Cc2cc(F)cc(F)c2)cc2c1OCC(=O)N[C@H]1CC[C@H](CC1)CC(=O)N[C@@H](c1ccccc1)C(=O)N[C@H](Cc1ccccc1)C(=O)NCCc1ccc(cc1)OC2 | 5.6 |  |  | 3.3
16 | CCOc1cccc2c1OCC(=O)N[C@H]1CC[C@H](CC1)CC(=O)N[C@@H](CC1CCCCC1)C(=O)N[C@H](CC1CCCCC1)C(=O)N[C@H](C(=O)NC)Cc1ccc(cc1)OC2 | 0.271 |  |  | 
17 | CCOc1cc(Oc2cc(C)c(Cl)c(C)c2)cc2c1OCC(=O)N[C@H]1CC[C@H](CC1)CC(=O)N[C@@H]([C@@H](C)OC)C(=O)N[C@H](Cc1ccncc1)C(=O)NCCc1ccc(cc1)OC2 | 9.4 | < 2 | 1.4 | 
18 | CCOc1cc(C#Cc2ccc(C(C)(C)C)cc2)cc2c1OCC(=O)N[C@H]1CC[C@H](CC1)CC(=O)N[C@@H](c1ccccc1)C(=O)N[C@H](Cc1ccccc1)C(=O)NCCc1ccc(cc1)OC2 | 1.8 |  |  | 9.9
19 | CCOc1cccc2c1OCC(=O)N[C@H]1CC[C@H](CC1)CC(=O)N[C@@H](c1ccccc1)C(=O)N[C@H](CC1CCCCC1)C(=O)N[C@H](C(=O)NC)Cc1ccc(cc1)OC2 | 0.064 |  |  | 

The next lines start with results.

Row | IC50 [1] [µM] | solubility kinetic at 24 h [2] [µM] | SMILES | IC50 [3] [µM] | IC50 [4] [µM]
20 | 21.8 |  | CCOc1cccc2c1OCC(=O)N[C@H]1CC[C@H](CC1)CC(=O)N[C@@H](c1ccccc1)C(=O)N[C@H](Cc1ccccc1)C(=O)N(C)CCc1ccc(cc1)OC2 (mixture of isomers) |  | 
21 | 1.44 | 1 (≈ 0.8 µg/mL) | CCOc1cccc2c1OCC(=O)N[C@H]1CC[C@H](CC1)CC(=O)N[C@@H](Cc1c[nH]c3ccccc13)C(=O)N[C@H](Cc1ccccc1)C(=O)NCCc1ccc(cc1)OC2 |  | 
22 | 0.234 |  | CCOc1cccc2c1OCC(=O)N[C@H]1CC[C@H](CC1)CC(=O)N[C@@H](c1ccccc1)C(=O)N(Cc1ccccc1)CC(=O)NCCc1ccc(cc1)OC2 |  | 
23 | 0.212 | 9 (≈ 6.7 µg/mL) | CCOc1cccc2c1OCC(=O)N[C@H]1CC[C@H](CC1)CC(=O)N[C@@H](CCSC)C(=O)N[C@H](Cc1ccccc1)C(=O)NCCc1ccc(cc1)OC2 |  | 
24 | 15 |  | CCOc1cc(-c2cc(C)cc(C)c2)cc2c1OCC(=O)N[C@H]1CC[C@H](CC1)CC(=O)N[C@@H](c1ccccc1)C(=O)N[C@H](Cc1ccccc1)C(=O)NCCc1ccc(cc1)OC2 |  | > 10
25 | 0.08 | 5 (≈ 3.88 µg/mL) | CCOc1cccc2c1OCC(=O)N[C@H]1CC[C@H](CC1)CC(=O)N[C@@H](CCS(C)(=O)=O)C(=O)N[C@H](Cc1ccccc1)C(=O)NCCc1ccc(cc1)OC2 |  | 
26 | 0.382 |  | CCOc1cccc2c1OCC(=O)N[C@H]1CC[C@H](CC1)CC(=O)N[C@@H](c1ccccc1)C(=O)N(C)[C@H](Cc1ccccc1)C(=O)NCCc1ccc(cc1)OC2 |  | 
27 | > 30 |  | CCOc1cccc2c1OCC(=O)N[C@H]1CC[C@H](CC1)CC(=O)N(c1ccccc1)CC(=O)N[C@H](Cc1ccccc1)C(=O)NCCc1ccc(cc1)OC2 |  | 
28 | 22 |  | CCOc1cc(Oc2cccc(Cl)c2)cc2c1OCC(=O)N[C@H]1CC[C@H](CC1)CC(=O)N[C@@H](c1ccccc1)C(=O)N[C@H](Cc1ccccc1)C(=O)NCCc1ccc(cc1)OC2 |  | 0.33
29 | 0.09 |  | CCOc1cccc2c1OCC(=O)N[C@H]1CC[C@H](CC1)CC(=O)N[C@@H](CC(C)C)C(=O)N[C@H](Cc1ccccc1)C(=O)NCCc1ccc(cc1)OC2 |  | 
30 | 0.174 |  | COc1cccc2c1OCC(=O)N[C@H]1CC[C@H](CC1)CC(=O)N[C@@H](c1ccccc1)C(=O)N[C@H](Cc1ccccc1)C(=O)NCCc1ccc(cc1)OC2 |  | 
31 | 0.059 |  | CCOc1cccc2c1OC(C)(C)C(=O)N[C@H]1CC[C@H](CC1)CC(=O)N[C@@H](c1ccccc1)C(=O)N[C@H](Cc1ccccc1)C(=O)NCCc1ccc(cc1)OC2 |  | 
32 | 7.1 |  | CCOc1cccc2c1OCC(=O)N[C@H]1CC[C@H](CC1)CC(=O)N[C@H](c1ccccc1)C(=O)N[C@H](Cc1ccccc1)C(=O)NCCc1ccc(cc1)OC2 |  | 
33 | 12 |  | CCOc1cc(Oc2cccc(C(F)(F)F)c2)cc2c1OCC(=O)N[C@H]1CC[C@H](CC1)CC(=O)N[C@@H](c1ccccc1)C(=O)N[C@H](Cc1ccccc1)C(=O)NCCc1ccc(cc1)OC2 |  | 0.18
34 | 54 |  | CCOc1cc(-c2ccc(F)c(C)c2)cc2c1OCC(=O)N[C@H]1CC[C@H](CC1)CC(=O)N[C@@H](c1ccccc1)C(=O)N[C@H](Cc1ccccc1)C(=O)NCCc1ccc(cc1)OC2 |  | 2.9
35 | 0.043 | 6 (≈ 4.49 µg/mL) | CCOc1cccc2c1OCC(=O)N[C@H]1CC[C@H](CC1)CC(=O)N[C@@H](c1cccnc1)C(=O)N[C@H](Cc1ccccc1)C(=O)NCCc1ccc(cc1)OC2 |  | 
36 | 0.034 | 3 (≈ 2.33 µg/mL) | CCOc1cccc2c1OCC(=O)N[C@H]1CC[C@H](CC1)CC(=O)N[C@@H](c1ccnc(OC)c1)C(=O)N[C@H](Cc1ccccc1)C(=O)NCCc1ccc(cc1)OC2 |  | 
37 | 39 |  | CCOc1cc(-c2ccc(C(F)(F)F)cc2)cc2c1OCC(=O)N[C@H]1CC[C@H](CC1)CC(=O)N[C@@H](c1ccccc1)C(=O)N[C@H](Cc1ccccc1)C(=O)NCCc1ccc(cc1)OC2 |  | 7.1
38 | 7.35 | 69 (≈ 51.8 µg/mL) | CCOc1cccc2c1OCC(=O)N[C@H]1CC[C@H](CC1)CC(=O)N[C@@H](Cc1c[nH]cn1)C(=O)N[C@H](Cc1ccccc1)C(=O)NCCc1ccc(cc1)OC2 |  | 
39 | 0.678 | 25 (≈ 18.2 µg/mL) | CCOc1cccc2c1OCC(=O)N[C@H]1CC[C@H](CC1)CC(=O)N[C@@H]([C@@H](C)OC)C(=O)N[C@H](Cc1ccccc1)C(=O)NCCc1ccc(cc1)OC2 |  | 
40 | 1.43 | 4 (≈ 3.04 µg/mL) | CCOc1cccc2c1OCC(=O)N[C@H]1CC[C@H](CC1)CC(=O)N[C@@](C)(c1ccccc1)C(=O)N[C@H](Cc1ccccc1)C(=O)NCCc1ccc(cc1)OC2 |  | 
41 | 7.3 |  | CCOc1cc(C#Cc2cccc(F)c2)cc2c1OCC(=O)N[C@H]1CC[C@H](CC1)CC(=O)N[C@@H](c1ccccc1)C(=O)N[C@H](Cc1ccccc1)C(=O)NCCc1ccc(cc1)OC2 |  | 2.2
42 | 0.227 |  | CCOc1cccc2c1OCC(=O)N[C@H]1CC[C@H](CC1)CC(=O)N[C@@H](c1ccccc1)C(=O)N[C@H](CC1CCCCC1)C(=O)NCCc1ccc(cc1)OC2 |  | 
43 | 1.37 | 37 (≈ 28.7 µg/mL) | CCOc1cccc2c1OCC(=O)N[C@H]1CC[C@H](CC1)CC(=O)N[C@@H](Cc1ccc(O)cc1)C(=O)N[C@H](Cc1ccccc1)C(=O)NCCc1ccc(cc1)OC2 |  | 
44 | 50 |  | CCOc1cc(-c2ccc(F)c(OC)c2)cc2c1OCC(=O)N[C@H]1CC[C@H](CC1)CC(=O)N[C@@H](c1ccccc1)C(=O)N[C@H](Cc1ccccc1)C(=O)NCCc1ccc(cc1)OC2 |  | 2.1
45 | 0.078 |  | O=C1C[C@H]2CC[C@H](CC2)NC(=O)COc2c(Cl)cccc2COc2ccc(cc2)CCNC(=O)[C@@H](Cc2ccccc2)NC(=O)[C@H](c2ccccc2)N1 |  | 
46 | > 30 |  | CCOc1cccc2c1OCC(=O)N[C@H]1CC[C@H](CC1)CC(=O)N(C)[C@@H](c1ccccc1)C(=O)N[C@H](Cc1ccccc1)C(=O)NCCc1ccc(cc1)OC2 |  | 

— ChEMBL document CHEMBL5528043, “Development of Potent Mcl-1 Inhibitors: Structural Investigations on Macrocycles Originating from a DNA-Encoded Chemical Library Screen” (J Med Chem, 2024)
